According to patent US20060003362A1, “ENT1 transporters expressed in cancer cells” (Xenoport, Inc., priority 2004, published 2006):

Target: T1, ENT1 (Homo sapiens, UniProt Q99808)
T1 construct: expressed in transfected cells; host or cells: Xenopus oocytes injected with ENT1 cRNA
T1 sequence (Q99808 1-456): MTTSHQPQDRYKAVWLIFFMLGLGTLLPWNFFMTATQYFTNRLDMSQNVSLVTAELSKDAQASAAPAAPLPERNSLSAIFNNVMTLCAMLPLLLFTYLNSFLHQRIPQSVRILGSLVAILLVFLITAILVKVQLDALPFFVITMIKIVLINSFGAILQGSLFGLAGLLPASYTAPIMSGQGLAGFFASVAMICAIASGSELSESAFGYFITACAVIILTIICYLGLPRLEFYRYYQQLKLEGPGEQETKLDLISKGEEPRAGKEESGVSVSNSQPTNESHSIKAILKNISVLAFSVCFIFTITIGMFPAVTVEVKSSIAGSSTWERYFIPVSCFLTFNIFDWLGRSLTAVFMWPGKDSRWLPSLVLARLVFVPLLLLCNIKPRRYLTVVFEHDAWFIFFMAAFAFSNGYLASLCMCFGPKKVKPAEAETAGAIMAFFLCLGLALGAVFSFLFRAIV
Assay: Uptake of radiolabel into Xenopus oocytes expressing ENT1
Type: cell-based
Conditions: Xenopus oocytes injected with ENT1 cRNA, 10 minutes, scintillation counting
Description: To assess transport function of a specific transporter protein, it can be desirable to clone the cDNA and express the protein in cells that have low endogenous transport activity. Human ENT1 was cloned by PCR, fully sequenced, and subcloned into plasmids that can be used for expression in mammalian cells or Xenopus oocytes. […] For expression in Xenopus oocytes, in vitro ENT1 cRNA was prepared and injected into defoliculated oocytes.
Oocytes expressing ENT1 or control oocytes not expressing ENT1 were incubated in an oocyte ringers (ND96) buffer (90 mM NaCl, 10 mM HemiNa HEPES, 2 mM KCl, 1 mM MgCl, 1.8 mM CaCl2) containing 0.5% bovine serum albumin and 3H urindine (10^6 CPM/ml) for 10 minutes. Oocytes were washed and uptake of radiolabel quantified by scintillation counting.

uptake into oocytes expressing ENT1 versus noninjected controls: higher levels
Compound: Nc1ccn([C@@H]2O[C@H](CO)[C@@H](O)C2(F)F)c(=O)n1 [^3H-gemcitabine, gemcitabine]
